From PMC10650415, “Synthesis of Tetracyclic Spirooxindolepyrrolidine-Engrafted Hydantoin Scaffolds: Crystallographic Analysis, Molecular Docking Studies and Evaluation of Their Antimicrobial, Anti-Inflammatory and Analgesic Activities” (Molecules, 2023)
In brackets after ≈: the same amount, converted by molar mass.

Legend:
[1] = target: T1, Lipoxygenase-5 (LOX-5) enzyme (Homo sapiens, UniProt P09917); assay: In vitro lipoxygenase (LOX-5) inhibitory assay; format: biochemical; details: mean ± SEM, n = 5; read-out: IC50 (LOX-5 inhibition) (converted)
T1 construct: purchased sigma 437996-500U
T1 sequence (P09917 1-674): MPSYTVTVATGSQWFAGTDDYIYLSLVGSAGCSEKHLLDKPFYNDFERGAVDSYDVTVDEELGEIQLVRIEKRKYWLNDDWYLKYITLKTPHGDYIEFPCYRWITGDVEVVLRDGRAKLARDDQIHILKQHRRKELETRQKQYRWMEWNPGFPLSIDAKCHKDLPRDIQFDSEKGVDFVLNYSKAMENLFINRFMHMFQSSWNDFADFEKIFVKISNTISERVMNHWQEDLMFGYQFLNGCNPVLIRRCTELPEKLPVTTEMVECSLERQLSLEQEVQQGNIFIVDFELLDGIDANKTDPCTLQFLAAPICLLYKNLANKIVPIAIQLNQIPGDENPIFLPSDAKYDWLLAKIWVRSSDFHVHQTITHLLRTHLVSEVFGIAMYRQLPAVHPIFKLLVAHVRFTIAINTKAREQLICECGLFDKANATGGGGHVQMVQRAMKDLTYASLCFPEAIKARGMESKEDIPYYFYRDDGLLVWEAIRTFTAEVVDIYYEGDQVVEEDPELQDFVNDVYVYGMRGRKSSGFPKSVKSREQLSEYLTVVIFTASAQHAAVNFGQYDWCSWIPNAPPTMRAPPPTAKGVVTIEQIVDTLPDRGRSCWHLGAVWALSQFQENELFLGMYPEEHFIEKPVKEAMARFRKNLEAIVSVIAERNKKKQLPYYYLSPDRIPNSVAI
Protocol: Lipoxygenases are a family of monomeric proteins that catalyze oxidation of polyunsaturated fatty acids (PUFA) (linoleic, linolenic and arachidonic acid) to produce hydroperoxides. Fractions’ anti-LOX activity was also measured as inhibition of linoleic acid’s peroxidation to hydroperoxylinoleic acid.
To evaluate the prospects of the newly synthesized spirooxindoles as promising drug candidates, we first studied their inhibitory potency against the Lipoxygenase-5 (LOX-5) enzyme.

[2] = system: C. albicans ATCC 90028; assay: MFC by the agar method; details: for MFC/MIC ratio: C. Albicans, ≤ 4 fungicidal, >4 fungistatic; for MFC: Candida albicans, ATCC90028
Protocol: (§2) To further determine the killing efficiency of the synthesized spiropyrrolidines against selected strains, the minimum bactericidal concentration (MBC) and the minimum fungicidal concentration (MFC) were assessed by the agar method [54].

[3] = system: S. aureus ATCC 25923; assay: MBC by the agar method; details: for MBC: Staphylococcus aureus, ATCC25923
Protocol: as §2

[4] = system: Micrococcus luteus NCIMB 8166; assay: MIC, in vitro micro diffusion method; format: cell-based; details: NCIMB8166, M. luteus NCIMB 8166
From the text: (§1) In this part, the spiropyrrolidines 4a–m were selected to be screening for their antimicrobial activities, using in vitro micro diffusion method, against multiple bacterial strains (Staphylocoocus aureus ATCC 25923, Escherichia coli ATCC 25922, Pseudomonas aeruginosa ATCC 27950, Micrococcus luteus NCIMB 8166), and two pathogenic reference yeasts namely Candida albicans ATCC 90028 and Candida kreusei ATCC 6258.

[5] = system: P. aeruginosa ATCC 27950; assay: MBC by the agar method; details: Pseudomonas aeruginosa, ATCC27950
Protocol: as §2

[6] = system: Escherichia coli ATCC 25922; assay: MIC, in vitro micro diffusion method; format: cell-based; details: ATCC25922, E. coli ATCC 25922
[7] = system: C. kreusei ATCC 6258; assay: MFC by the agar method; details: for MFC/MIC ratio: C. Krusei, ≤ 4 fungicidal, >4 fungistatic; for MFC: Pichia kudriavzevii, ATCC6258
Protocol: as §2

[8] = system: E. coli ATCC 25922; assay: MBC by the agar method
Protocol: as §2

[9] = system: M. luteus NCIMB 8166; assay: MBC by the agar method; details: for MBC: Micrococcus luteus, NCIMB8166; for MBC/MIC ratio: M. luteus, ≤ 4 bactericidal, >4 bacteriostatic
Protocol: as §2

[10] = system: λ-carrageenan-induced paw edema; assay: Carrageenan-induced paw edema test; format: in vivo; details: rats; for Increase in Paw Volume, 0 h / Increase in Paw Volume, 1 h / Increase in Paw Volume, 2 h / Increase in Paw Volume, 4 h: 10 mg/kg orally 1 h before carrageenan; for % Inhibition of Edema, 1 h / % Inhibition of Edema, 2 h / % Inhibition of Edema, 4 h: 10 mg/kg orally
From the text: Diclofenac sodium was used as a reference drug.

[11] = system: acetic acid-induced writhing; assay: Acetic acid-induced writhing test (analgesic); details: 100 mg/kg; for Number of Writhing: mean ± SE
Protocol: Any writhing was considered a positive response. The efficacy and potency of analgesic activity of the test compounds is inferred from the reduction in the frequency of writhings [53].
Analgesic activity in rats was determined by the protocol described by Tiss et al. [82].

[12] = system: Staphylocoocus aureus ATCC 25923; assay: MIC, in vitro micro diffusion method; format: cell-based; details: Staphylococcus aureus, ATCC25923; S. aureus ATCC 25923
From the text: as §1

[13] = Acute toxicity (liver and kidney indices); format: in vivo; details: rats; for ALT / AST / Albumin / Creat / Urea: dose of 16.25 mg/kg; for Acute toxicity (result in words): up to a dose of 16.25 mg/kg
[14] = system: Candida kreusei ATCC 6258; assay: MIC, in vitro micro diffusion method; format: cell-based; details: C. krusei ATCC 6258
From the text: as §1

[15] = Escherichia coli, ATCC25922, E. coli ATCC 25922

| SMILES | IC50 [1] [mM] | MFC/MIC ratio [2] | MFC [2] [µg/mL] | melting point [°C] | MBC [3] [µg/mL] | MIC [4] [µg/mL] | MBC [5] [µg/mL] | MFC/MIC ratio [7] | MFC [7] [µg/mL] | MBC ([8]; E. coli ATCC 25922) [µg/mL] | MBC [8, 15] [µg/mL] | MBC [9] [µg/mL] | other results |
| --- | --- | --- | --- | --- | --- | --- | --- | --- | --- | --- | --- | --- | --- |
| O=C1NC(=O)[C@]2(N1)[C@@H](c1ccccc1O)[C@H](c1ccccc1)N[C@@]21C(=O)Nc2ccc(Cl)cc21 (stereo in doubt) [4m] | 2.99 | ≤ 4 | 93.8 (≈ 197 µM) | 223 | 93.8 (≈ 197 µM) | 93.8 (≈ 197 µM) | 188 (≈ 395 µM) | ≤ 4 | 93.8 (≈ 197 µM) | 375 (≈ 790 µM) | 188 to 374 (≈ 395 to 788 µM) | 188 (≈ 395 µM) | MIC [6]: 188 µg/mL (≈ 395 µM) |
| O=C1NC(=O)[C@]2(N1)[C@@H](c1ccccc1O)[C@H](c1ccccc1)N[C@@]21C(=O)Nc2ccccc21 (racemic) [4l] | 2.47 | ≤ 4 | 188 (≈ 426 µM) |  | 93.8 (≈ 213 µM) |  | 93.8 (≈ 213 µM) | ≤ 4 | 93.8 (≈ 213 µM) |  | 188 (≈ 426 µM) | 750 (≈ 1700 µM) | Increase in Paw Volume, 0 h [10]: 0.57 ± 0.19; Increase in Paw Volume, 1 h [10]: 0.93 ± 0.13; Increase in Paw Volume, 2 h [10]: 1.26 ± 0.31; Increase in Paw Volume, 4 h [10]: 1.73 ± 0.33; % Inhibition of Edema, 1 h [10]: 29%; % Inhibition of Edema, 2 h [10]: 18%; % Inhibition of Edema, 4 h [10]: 32%; % Inhibition (writhing) [11]: 53%; Number of Writhing [11]: 29 ± 6; MIC [12]: 46.9 µg/mL (≈ 106 µM); ALT [13]: 22 ± 1.7 U/L; AST [13]: 101 ± 11 U/L; Albumin [13]: 8.5 ± 1.1 g/L; Creat [13]: 3.41 ± 0.8 µmol/L; Urea [13]: 2.97 ± 0.5 mmol/L; Acute toxicity (result in words) [13]: did not cause any toxicity |
| Cc1ccc([C@H]2[C@H](c3ccccc3)N[C@@]3(C(=O)Nc4ccc(Br)cc43)[C@@]23NC(=O)NC3=O)cc1 (racemic) [4b] | 5.66 | ≤ 4 | 188 (≈ 362 µM) | 236 | 750 (≈ 1450 µM) |  | 93.8 (≈ 181 µM) | ≤ 4 | 93.8 (≈ 181 µM) | 375 (≈ 725 µM) | 188 to 374 (≈ 362 to 723 µM) | 750 (≈ 1450 µM) | MBC/MIC ratio ([3]; S. aureus, ≤ 4 bactericidal, >4 bacteriostatic): 16; MIC [12]: 46.9 µg/mL (≈ 90.6 µM) |
| O=C1NC(=O)[C@]2(N1)[C@@H](c1ccc(Cl)cc1)[C@H](c1ccccc1)N[C@@]21C(=O)Nc2ccc(Br)cc21 (racemic) [4h] | 3.09 |  | > 1500 | 198 | 188 (≈ 349 µM) | 93.8 (≈ 174 µM) | 188 (≈ 349 µM) |  | > 1500 | 375 (≈ 697 µM) | 188 to 374 (≈ 349 to 695 µM) | 188 (≈ 349 µM) | MBC/MIC ratio [9]: 8 |
| O=C1NC(=O)[C@]2(N1)[C@@H](c1ccc(F)cc1)[C@H](c1ccccc1)N[C@@]21C(=O)Nc2ccc(Cl)cc21 (racemic) [4j] | 4.03 |  | 93.8 (≈ 197 µM) | 208 | 93.8 (≈ 197 µM) |  | 93.8 (≈ 197 µM) |  | 188 (≈ 393 µM) |  | 188 (≈ 393 µM) | 750 (≈ 1570 µM) |  |
| COc1ccc([C@H]2[C@H](c3ccccc3)N[C@@]3(C(=O)Nc4ccccc43)[C@@]23NC(=O)NC3=O)cc1 (racemic) [4d] | 5.15 |  | > 1500 | 187 | 93.8 (≈ 206 µM) |  | 188 (≈ 413 µM) |  | 93.8 (≈ 206 µM) | 375 (≈ 825 µM) | 188 to 374 (≈ 413 to 823 µM) | 750 (≈ 1650 µM) |  |
| CN(C)[C@@H]1C(O)=C(C(N)=O)C(=O)[C@@]2(O)C(O)=C3C(=O)c4c(O)cccc4[C@@](C)(O)[C@H]3C[C@@H]12 [Tetracycline, reference compound] |  |  |  |  | 8 (≈ 18 µM) | 500 (≈ 1130 µM) | 128 (≈ 288 µM) |  |  |  | 512 (≈ 1150 µM) | 512 (≈ 1150 µM) |  |
| C[C@@H]1[C@H](O)[C@@H](C)/C=C/C=C/C=C/C=C/C=C/C=C/C=C/[C@H](O[C@@H]2O[C@H](C)[C@@H](O)[C@H](N)[C@@H]2O)C[C@@H]2O[C@](O)(C[C@@H](O)C[C@@H](O)[C@H](O)CC[C@@H](O)C[C@@H](O)CC(=O)O[C@H]1C)C[C@H](O)[C@H]2C(=O)O [Amphotericin B, reference compound] |  |  | 500 (≈ 541 µM) |  |  |  |  |  | 62.5 (≈ 67.6 µM) |  |  |  | MIC [14]: 62.5 µg/mL (≈ 67.6 µM) |
| O=C1NC(=O)[C@]2(N1)[C@@H](c1ccc(F)cc1)[C@H](c1ccccc1)N[C@@]21C(=O)Nc2ccc(Br)cc21 (racemic) [4k] | 2.97 | ≤ 4 | 188 (≈ 360 µM) | 223 | 188 (≈ 360 µM) |  | 188 (≈ 360 µM) | ≤ 4 | 188 (≈ 360 µM) |  | 188 (≈ 360 µM) | > 1500 |  |
| O=C1NC(=O)[C@]2(N1)[C@@H](c1ccc(Cl)cc1)[C@H](c1ccccc1)N[C@@]21C(=O)N(Cc2ccccc2)c2ccccc21 (racemic) [4f] | 8.96 |  | 93.8 (≈ 171 µM) | 195 | 188 (≈ 342 µM) |  | 375 (≈ 683 µM) |  | 93.8 (≈ 171 µM) | 375 (≈ 683 µM) | 188 to 374 (≈ 342 to 681 µM) | 750 (≈ 1370 µM) |  |
| O=C1NC(=O)[C@]2(N1)[C@@H](c1ccc(Br)cc1)[C@H](c1ccccc1)N[C@@]21C(=O)N(Cc2ccccc2)c2ccccc21 (racemic) [4g] | 8.36 | ≤ 4 | 93.8 (≈ 158 µM) | 223 | 46.9 (≈ 79 µM) | 93.8 (≈ 158 µM) | 188 (≈ 316 µM) | ≤ 4 | 93.8 (≈ 158 µM) | 375 (≈ 632 µM) | 188 to 374 (≈ 316 to 630 µM) | > 1500 | MIC [12]: 23.3 µg/mL (≈ 39.3 µM); MBC/MIC ratio [9]: 8 |
| O=C(O)Cc1ccccc1Nc1c(Cl)cccc1Cl [Diclofenac sodium, reference compound] |  |  |  |  |  |  |  |  |  |  |  |  | Increase in Paw Volume, 0 h [10]: 0.41 ± 0.11; Increase in Paw Volume, 1 h [10]: 0.59 ± 0.13; Increase in Paw Volume, 2 h [10]: 0.83 ± 0.19; Increase in Paw Volume, 4 h [10]: 1.21 ± 0.39; % Inhibition of Edema, 1 h [10]: 30%; % Inhibition of Edema, 2 h [10]: 46%; % Inhibition of Edema, 4 h [10]: 46%; % Inhibition (writhing) [11]: 63%; Number of Writhing [11]: 23 ± 4; Number of Writhing ([11]; listed as diclofenac sodium): 23 |
| O=C1NC(=O)[C@]2(N1)[C@@H](c1ccc(F)cc1)[C@H](c1ccccc1)N[C@@]21C(=O)Nc2ccccc21 (racemic) [4i] | 2.28 | ≤ 4 | 93.8 (≈ 212 µM) |  | 750 (≈ 1700 µM) |  | 188 (≈ 424 µM) | ≤ 4 | 188 (≈ 424 µM) |  | 750 (≈ 1700 µM) | > 1500 | Increase in Paw Volume, 0 h [10]: 0.43 ± 0.14; Increase in Paw Volume, 1 h [10]: 0.98 ± 0.11; Increase in Paw Volume, 2 h [10]: 1.13 ± 0.21; Increase in Paw Volume, 4 h [10]: 1.51 ± 0.13; % Inhibition of Edema, 1 h [10]: 27%; % Inhibition of Edema, 2 h [10]: 25%; % Inhibition of Edema, 4 h ([10]; 10 mg/kg): 33%; % Inhibition (writhing) [11]: 42%; Number of Writhing [11]: 36 ± 5; ALT [13]: 21.1 ± 1.5 U/L; AST [13]: 98.3 ± 13 U/L; Albumin [13]: 8.7 ± 1.66 g/L; Creat [13]: 3.31 ± 0.9 µmol/L; Urea [13]: 2.83 ± 0.7 mmol/L; Acute toxicity (result in words) [13]: did not cause any toxicity |
